# Reference: patent publication US20240115555A1, “METHODS OF TREATING CANCER USING B-RAF INHIBITORS AND IMMUNE CHECKPOINT INHIBITORS” (Genentech, Inc., priority 2015, published 2024)
# Legend:
# [1] = fumarate salt; cited from earlier work
# [2] = tested on: CD8+ T-cells; experiment: Tissue samples stained for CD8+ T-cells; type: in vivo, human; settings: patient tissue samples, data not shown
# Excerpt: (§1) Tissue samples were stained for CD8+ T-cells as well as PD-L1 expression. Treatment with vemurafenib alone increased immune tumor CD8+ T-cell infiltration (data not shown). Treatment with either vemurafenib alone or vemurafenib in combination with atezolizumab increased expression of PD-L1 on tumor cells as well as tumor-infiltrating immune cells (data not shown).
# [3] = tested on: PD-L1; experiment: Tissue samples stained for PD-L1 expression; type: in vivo, human; settings: patient tissue samples, data not shown
# Excerpt: as §1
# [4] = tested on: metastatic melanoma with the BRAFV600E mutation; settings: cited from earlier work
# [5] = tested on: unresectable or metastatic melanoma; settings: two Phase III studies; cited from earlier work
compound,measurement,setting,value
"O=C(c1ccc(F)c(F)c1Nc1ccc(I)cc1F)N1CC(O)([C@@H]2CCCCN2)C1 [Cobimetinib, (S)-(3,4-difluoro-2-(2-fluoro-4-iodophenylamino)phenyl)(3-hydroxy-3-(piperidin-2-yl)azetidin-1-yl)methanone]",solubility,[1],pH dependent solubility
"CCCS(=O)(=O)Nc1ccc(F)c(C(=O)c2c[nH]c3ncc(-c4ccc(Cl)cc4)cc23)c1F [vemurafenib, propane-1-sulfonic acid {3-[5-(4-chlorophenyl)-1H-pyrrolo[2,3-b]pyridine-3-carbonyl]-2,4-difluoro-phenyl}-amide]",immune tumor CD8+ T-cell infiltration,[2],increased
same,expression of PD-L1 on tumor cells as well as tumor-infiltrating immune cells,[3],increased
same,improvement in PFS,[4]; compared with dacarbazine,74%
same,reduction in the risk of death,[4]; compared with dacarbazine,63%
same,hazard ratio for death,"[4]; in favor of vemurafenib vs dacarbazine, median follow-up of 12.5 months","0.70 (95% CI: 0.57, 0.87)"
same,median OS,[4]; median follow-up of 12.5 months,13.6 months
same,Response rates,"[4]; previously untreated, BRAFV600E mutation",48%
same,improvement in median OS,"[4]; vs dacarbazine, median follow-up of 12.5 months",~4 month
Ipilimumab: humanized immunoglobulin (Ig)G1 monoclonal antibody that blocks cytotoxic T-lymphocyte-associated antigen 4 (CTLA-4),median PFS,[5],2.8 months
same,overall response rate,[5],10.9%
